This is an account of results in patent publication US11261186B2, “Biaryl derivative as GPR120 agonist” (LG CHEM, LTD., priority 2014, dated 2022).

Each structure is given as a SMILES string.

The target of the assay is T1, hGPR120 (Homo sapiens, UniProt Q5NUL3).
T1 construct: expressed in transfected cells; host or cells: CHO-K1
T1 sequence (Q5NUL3 1-361): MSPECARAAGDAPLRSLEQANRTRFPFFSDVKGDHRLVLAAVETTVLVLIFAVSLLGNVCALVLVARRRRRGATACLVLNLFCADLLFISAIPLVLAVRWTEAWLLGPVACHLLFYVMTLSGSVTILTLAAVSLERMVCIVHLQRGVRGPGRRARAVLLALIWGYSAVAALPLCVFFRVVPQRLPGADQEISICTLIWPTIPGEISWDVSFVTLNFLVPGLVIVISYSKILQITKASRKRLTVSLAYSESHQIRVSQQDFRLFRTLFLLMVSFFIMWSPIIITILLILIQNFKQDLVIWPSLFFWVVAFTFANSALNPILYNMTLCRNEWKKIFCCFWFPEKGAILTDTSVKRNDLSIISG
Put plainly: Measurement of Activity of GPR120 Agonist (Cell-Based Assay), Calcium 5 dye fluorescence. The conditions noted are these: CHO-K1 cells expressing Ga16 and hGPR120. In a few lines: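 Gα16/hGPR120 CHO-K1; 18 h plating, 37 °C, 5% CO2; Calcium 5 dye load 1 h; agonist serial dilution, 0.5% DMSO final; fluor Ex485/Em525; response as % of 1% DMSO vehicle.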

With `CC(C)Sc1cccc(-c2cc(F)c(N3CC(CC(=O)O)C3)c(F)c2)n1` [Example 114, 2-[1-[2,6-difluoro-4-(6-isopropylsulfanyl-2-pyridyl)phenyl]azetidin-3-yl]acetic acid], the EC50 was < 200 nM.
As for `CC(C)Oc1cccc(-c2cc(F)c(N3CC(CC(=O)O)C3)c(F)c2)n1` [Example 115, 2-[1-[2,6-difluoro-4-(6-isopropoxy-2-pyridyl)phenyl]azetidin-3-yl]acetic acid], the EC50 was < 200 nM.
As for `O=C(O)CC1CN(c2c(F)cc(-c3cccc(OC4CCCC4)n3)cc2F)C1` [Example 116, 2-[1-[4-[6-(cyclopentoxy)-2-pyridyl]-2,6-difluoro-phenyl]azetidin-3-yl]acetic acid], the figure is < 200 nM.
In the case of `CCCSc1ncccc1-c1cc(F)c(N2CCC(CC(=O)O)CC2)c(F)c1` [Example 117, 2-[1-[2,6-difluoro-4-(2-propylsulfanyl-3-pyridyl)phenyl]-4-piperidyl]acetic acid], the EC50 is < 200 nM.
In the case of `O=C(O)CC1CCN(c2c(F)cc(-c3cccnc3SC3CCC3)cc2F)CC1` [Example 118, 2-[1-[4-(2-cyclobutylsulfanyl-3-pyridyl)-2,6-difluoro-phenyl]-4-piperidyl]acetic acid], the 50% effective concentration (EC50) is 200 to 2000 nM.
As for `CC(C)Oc1ncccc1-c1cc(F)c(N2CCC(CC(=O)O)CC2)c(F)c1` [Example 119, 2-[1-[2,6-difluoro-4-(2-isopropoxy-3-pyridyl)phenyl]-4-piperidyl]acetic acid], the figure is 200 to 2000 nM; as for `CCCOc1ncccc1-c1cc(F)c(N2CCC(CC(=O)O)CC2)c(F)c1` [Example 120, 2-[1-[2,6-difluoro-4-(2-propoxy-3-pyridyl)phenyl]-4-piperidyl]acetic acid], 200 to 2000 nM; as for `O=C(O)CC1CCN(c2c(F)cc(-c3cccnc3OCC3CC3)cc2F)CC1` [Example 121, 2-[1-[4-[2-(cyclopropylmethoxy)-3-pyridyl]-2,6-difluoro-phenyl]-4-piperidyl]acetic acid], < 200 nM.
As for `CC(C)Sc1ncccc1-c1cc(F)c(-n2cc(CC(=O)O)cn2)c(F)c1` [Example 122, 2-[1-[2,6-difluoro-4-(2-isopropylsulfanyl-3-pyridyl)phenyl]pyrazol-4-yl]acetic acid], the figure is 2000 to 20000 nM; as for `CC(C)Sc1cccc(-c2cc(F)c(-n3cc(CC(=O)O)cn3)c(F)c2)n1` [Example 123, 2-[1-[2,6-difluoro-4-(6-isopropylsulfanyl-2-pyridyl)phenyl]pyrazol-4-yl]acetic acid], 200 to 2000 nM.
As for `CC(C)Sc1ncccc1-c1cc(F)c(N2CCC(CC(=O)O)C2)c(F)c1` (centres unmarked) [Example 124, 2-[1-[2,6-difluoro-4-(2-isopropylsulfanyl-3-pyridyl)phenyl]pyrrolidin-3-yl]acetic acid], the figure is < 200 nM.
Consider `CC(C)Sc1cccc(-c2cc(F)c(N3CCC(CC(=O)O)C3)c(F)c2)n1` (centres unmarked) [Example 125, 2-[1-[2,6-difluoro-4-(6-isopropylsulfanyl-2-pyridyl)phenyl]pyrrolidin-3-yl]acetic acid], for which the half-maximal effective concentration (EC50) was < 200 nM.
For `CC(C)Sc1ncccc1-c1cc(F)c(N2CCC(CCC(=O)O)CC2)c(F)c1` [Example 126, 3-[1-[2,6-difluoro-4-(2-isopropylsulfanyl-3-pyridyl)phenyl]-4-piperidyl]propanoic acid] the value was < 200 nM; for `O=C(O)C1CC1CCNc1c(F)cc(-c2cccnc2SC2CCCC2)cc1F` (centres unmarked) [Example 128, 2-[2-[4-(2-cyclopentylsulfanyl-3-pyridyl)-2,6-difluoro-anilino]ethyl]cyclopropanecarboxylic acid], < 200 nM; for `CC(C)Sc1ncccc1-c1cc(F)c(-n2cc(CCC(=O)O)cn2)c(F)c1` [Example 131, 3-[1-[2,6-difluoro-4-(2-isopropylsulfanyl-3-pyridyl)phenyl]pyrazol-4-yl]propanoic acid], 2000 to 20000 nM.
For `O=C(O)CCCN1CCc2cc(-c3cccnc3SC3CCCC3)ccc21` [Example 132, 4-[5-(2-cyclopentylsulfanyl-3-pyridyl)indolin-1-yl]butanoic acid] the value was < 200 nM.
As for `CC(C)Sc1ncccc1-c1cc(F)c(N2CC(CCC(=O)O)C2)c(F)c1` [Example 133, 3-[1-[2,6-difluoro-4-(2-isopropylsulfanyl-3-pyridyl)phenyl]azetidin-3-yl]propanoic acid], the figure is 200 to 2000 nM.
Turning to `CC(C)Sc1ncccc1-c1cc(F)c(N2CC[C@H](CC(=O)O)C2)c(F)c1` [Example 134, 2-[(3R)-1-[2,6-difluoro-4-(2-isopropylsulfanyl-3-pyridyl)phenyl]pyrrolidin-3-yl]acetic acid], the EC50 is < 200 nM.
For `O=C(O)C[C@H]1CCN(c2c(F)cc(-c3cccnc3OC3CCCC3)cc2F)C1` [Example 135, 2-[(3R)-1-[4-[2-(cyclopentoxy)-3-pyridyl]-2,6-difluoro-phenyl]pyrrolidin-3-yl]acetic acid] the value was < 200 nM; for `CC(C)Sc1ncccc1-c1cc(F)c(N2CC[C@@H](CC(=O)O)C2)c(F)c1` [Example 136, 2-[(3S)-1-[2,6-difluoro-4-(2-isopropylsulfanyl-3-pyridyl)phenyl]pyrrolidin-3-yl]acetic acid], < 200 nM; for `O=C(O)C[C@@H]1CCN(c2c(F)cc(-c3cccnc3OC3CCCC3)cc2F)C1` [Example 137, 2-[(3S)-1-[4-[2-(cyclopentoxy)-3-pyridyl]-2,6-difluoro-phenyl]pyrrolidin-3-yl]acetic acid], < 200 nM.
For `CC(C)Sc1ncccc1-c1ccc(N2CCC(CC(=O)O)CC2)c(F)c1` [Example 138, 2-[1-[2-fluoro-4-(2-isopropylsulfanyl-3-pyridyl)phenyl]-4-piperidyl]acetic acid] the value was 200 to 2000 nM; for `O=C(O)CC1CCN(c2ccc(-c3cccnc3OC3CCCC3)cc2F)CC1` [Example 139, 2-[1-[4-[2-(cyclopentoxy)-3-pyridyl]-2-fluoro-phenyl]-4-piperidyl]acetic acid], 200 to 2000 nM.
As for `CC(C)Sc1cccc(-c2ccc3cc(CCC(=O)O)ccc3c2)n1` [Example 140, 3-[6-(6-isopropylsulfanyl-pyridin-2-yl)-naphthalen-2-yl]-propanoic acid], the figure is 200 to 2000 nM; as for `O=C(O)CCc1ccc2cc(-c3cccc(Oc4ccccc4)n3)ccc2c1` [Example 141, 3-[6-(6-phenoxy-pyridin-2-yl)-naphthalen-2-yl]-propanoic acid], < 200 nM.
With `O=C(O)CCc1ccc2cc(-c3ccccc3Oc3ccccc3)ccc2c1` [Example 142, 3-[6-(2-phenoxy-phenyl)-naphthalen-2-yl]-propanoic acid], the half-maximal effective concentration (EC50) fell in the range of 200 to 2000 nM.
In the case of `O=C(O)CCc1ccc2cc(-c3cccc(SC4CCCC4)n3)ccc2c1` [Example 143, 3-[6-(6-cyclopentylsulfanyl-pyridin-2-yl)-naphthalen-2-yl]-propanoic acid], the half-maximal effective concentration (EC50) was in the range of 2000 to 20000 nM.
As for `O=C(O)CCc1ccc2cc(-c3cccnc3Oc3ccccc3)ccc2c1` [Example 144, 3-[6-(2-phenoxy-pyridin-3-yl)-naphthalen-2-yl]-propanoic acid], the figure is < 200 nM.
As for `CC(C)Oc1cccc(-c2ccc3cc(CCC(=O)O)ccc3c2)c1` [Example 146, 3-[6-(3-isopropoxy-phenyl)-naphthalen-2-yl]-propanoic acid], the figure is 200 to 2000 nM; as for `O=C(O)CCc1ccc2cc(-c3cccc(OC4CCC4)c3)ccc2c1` [Example 147, 3-[6-(3-cyclobutoxy-phenyl)-naphthalen-2-yl]-propanoic acid], < 200 nM; as for `O=C(O)CCc1ccc2cc(-c3cccc(OC4CCC4)n3)ccc2c1` [Example 148, 3-[6-(6-cyclobutoxy-pyridin-2-yl)-naphthalen-2-yl]-propanoic acid], 200 to 2000 nM.
As for `CC(C)Oc1ncccc1-c1ccc2cc(CCC(=O)O)ccc2c1` [Example 149, 3-[6-(2-isopropoxy-pyridin-3-yl)-naphthalen-2-yl]-propanoic acid], the figure is < 200 nM; as for `O=C(O)CCc1ccc2cc(-c3cccnc3OC3CCCC3)ccc2c1` [Example 150, 3-[6-(2-cyclopentyloxy-pyridin-3-yl)-naphthalen-2-yl]-propanoic acid], < 200 nM.
On to `O=C(O)CCc1ccc2cc(-c3ccccc3Oc3ccccc3F)ccc2c1` [Example 151, 3-{6-[2-(2-fluoro-phenoxy)-phenyl]-naphthalen-2-yl}-propanoic acid], for which the EC50 was 2000 to 20000 nM.
`O=C(O)CCc1ccc2cc(-c3cccc(Oc4ccccc4F)n3)ccc2c1` [Example 152, 3-{6-[6-(2-fluoro-phenoxy)-pyridin-2-yl]-naphthalen-2-yl}-propanoic acid]: the EC50 lay within 200 to 2000 nM.
As for `O=C(O)CCCSc1c(F)cc(-c2cccc3c2OC(F)(F)O3)cc1F` [Example 153, 4-[4-(2,2-difluoro-benzo[1,3]dioxol-4-yl)-2,6-difluoro-phenylsulfanyl]-butyric acid], the figure is < 200 nM.
For `O=C(O)CCCSc1ccc(-c2cccc3c2OC(F)(F)O3)cc1F` [Example 154, 4-[4-(2,2-difluoro-benzo[1,3]dioxol-4-yl)-2-fluoro-phenylsulfanyl]-butyric acid] the value was < 200 nM; for `O=C(O)CCCSc1ccc(-c2cccc3c2OC(F)(F)O3)cc1` [Example 155, 4-[4-(2,2-difluoro-benzo[1,3]dioxol-4-yl)-phenylsulfanyl]-butyric acid], < 200 nM.
